Tests used:
[1] = system: PTZ-induced seizure rat model; experiment: PTZ (pentylenetetrazole)-induced epileptic seizure model: seizure intensity, grade distribution, mortality; type: in vivo, rats; conditions: for seizure-induced mortality: 10 animals; for seizure intensity: 60 mg/head IP on D1 and D14 (G2)
Experimental: In order to evaluate the seizure-suppressing effect of administration of the microparticles of the present invention in an epilepsy-induced model, administration groups were set up as follows.
G3 and G4 were administered to rats at different doses using the above-described Example 7.
(§1) After the completion of acclimatization, the rats were divided into groups. On day 1 (D1), the test substances G1 to G4 were administered intraperitoneally and subcutaneously, and 30 minutes later, PTZ (pentylenetetrazole, Sigma, USA) dissolved in 0.9% sterile saline was administered intraperitoneally at a dose of 37.5 mg/kg to induce epileptic seizures. In the normal group, only the same amount of saline was administered. Then, PTZ was repeatedly administered at time points D2, D3, D5, D7, D14, D21, and D28 to induce epileptic seizures. The intensity of the seizures was graded and evaluated for 30 minutes immediately after PTZ administration at each time point according to the following criteria: [Table 7]

[2] = Body weight change in the PTZ seizure study; type: in vivo, rats; conditions: 60 mg/head IP (G2); difference not statistically significant
Experimental: as §1
During the test period, body weight continued to increase in all the groups without decrease.

## C=C(C)[C@@H]1CCC(C)=C[C@H]1c1c(O)cc(CCCCC)cc1O [CBD solution, cannabidiol]
[1]; 60 mg/head IP (G2), until week 3
  seizure-induced mortality: no deaths occurred
[1]; 60 mg/head IP (G2), week 4
  seizure-induced mortality: three animals died
  individuals with grade-5 seizures: more than half of individuals
[1]; 60 mg/head IP (G2), week 2, at the time of additional administration
  individuals with severe seizures: 10%
[1]; day 1, stages 0 to 6
  seizure intensity: 2.4 grade
[1]; week 1
  seizure intensity: 3.9 grade
[1]; week 2, after additional administration
  seizure intensity: 2.9 grade
[1]; weeks 3 and 4
  seizure intensity: 4.9 grade
[2]
  weight gain: slightly smaller than that in the other groups

Source: EP4744649A1, “SUSTAINED-RELEASE INJECTABLE COMPOSITION FOR TREATING OR PREVENTING NEUROLOGICAL DISORDERS, AND METHOD FOR PREPARING SAME” (Inventage Lab Inc., priority 2023, dated 2025)
